This is an account of results in PMC12691742, “Anti-Cancer Outcome of Glucocorticoid Receptor Transrepression by Synephrine Derivatives in Hematological Malignancies” (International Journal of Molecular Sciences, 2025).

For orientation: IC50 means the concentration at which inhibition is half-maximal.

Structures are written as SMILES. Read-outs that look alike come from different tables or passages of the source.

For one test, the target named is T1, GR (Homo sapiens, UniProt P04150).
T1 construct: endogenous in cells; host or cells: K562
T1 sequence (P04150 1-777): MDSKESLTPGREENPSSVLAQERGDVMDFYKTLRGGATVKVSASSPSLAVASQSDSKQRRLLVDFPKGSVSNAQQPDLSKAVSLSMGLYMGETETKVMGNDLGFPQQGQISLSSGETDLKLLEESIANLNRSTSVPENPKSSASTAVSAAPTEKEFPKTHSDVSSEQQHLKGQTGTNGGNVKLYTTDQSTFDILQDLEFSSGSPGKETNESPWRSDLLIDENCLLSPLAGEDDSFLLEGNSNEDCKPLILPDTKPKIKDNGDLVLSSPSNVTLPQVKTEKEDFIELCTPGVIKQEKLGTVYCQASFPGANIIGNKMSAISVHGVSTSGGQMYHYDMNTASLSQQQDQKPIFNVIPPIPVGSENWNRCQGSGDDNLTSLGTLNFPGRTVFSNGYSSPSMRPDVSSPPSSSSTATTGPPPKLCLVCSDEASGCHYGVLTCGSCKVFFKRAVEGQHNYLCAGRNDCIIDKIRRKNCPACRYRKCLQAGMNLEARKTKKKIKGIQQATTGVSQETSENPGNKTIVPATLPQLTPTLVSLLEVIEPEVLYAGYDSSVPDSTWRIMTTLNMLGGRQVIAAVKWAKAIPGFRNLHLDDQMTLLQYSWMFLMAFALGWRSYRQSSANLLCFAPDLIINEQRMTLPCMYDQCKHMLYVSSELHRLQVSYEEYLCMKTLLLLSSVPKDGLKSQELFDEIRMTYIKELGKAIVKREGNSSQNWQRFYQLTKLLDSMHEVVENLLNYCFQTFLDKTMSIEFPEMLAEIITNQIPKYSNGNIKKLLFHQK
Description: GR radioligand binding assay, competition with [3H]Dex in K562 cells. Here is the method: (A,B). […] The stability of the complex was simulated using molecular dynamics in the GROMACS program. (C) GR binding affinity was estimated using a radioligand binding assay. […] Cell lysate radioactivity was measured using a RackBeta 1215 LC (LKB Wallac, Turku, Finland) spectrometer for 4 min. […] The experiments were performed in triplicate (n = 3).
After 90 min of incubation, the cells were washed twice by centrifugation in cold serum-free medium (1500 rpm, 5 min). The cells were then lysed with RIPA buffer (50 mM Tris (pH 8.0), 150 mM NaCl, 1 mM ethylenediaminetetraacetic acid, 0.1% sodium dodecyl sulfate, 0.5% sodium deoxycholate, 1% triton-X100, 10% glycerin, and protease inhibitor) for 20 min. Lysates were transferred to scintillation liquid, and radioactivity was measured using a RackBeta 1215 LC spectrometer for 4 min. […] IC50 was determined using GraphPad Prism software, Ver.7.0. […] “Top” meant the highest value in dpm and was equal to 100%, while the “bottom” was considered as the lowest value (0%). […] The IC50 values for each ligand were determined by plotting these curves. The experiments were performed in triplicate.

In test [1] the test system is FKBP51, GILZ, DDIT4 mRNA expression in K562 and Granta cells. Description: Q-PCR of GR transactivation marker genes. It is filed as cell-based. The settings on record: 4 h (FKBP51, GILZ) or 24 h (DDIT4); Dex 10 µM, 10S-E2 0.1 µM; vs control. The text has this:
Q-PCR results were confirmed by Western blot analysis of the level of GR phosphorylated by Ser211, known as a crucial protein modification for GR TA realization because of its binding to short cysteine-rich fragments of the coactivator CREB-binding protein [41].
(§1) Figure 3 Effects of synephrine derivatives on GR transactivation in Granta lymphoma and K562 leukemia cells. (A) Q-PCR analysis of FKBP51, GILZ, and DDIT4 mRNA expression in K562 and Granta cells. […] The Q-PCR results were normalized to the expression of the housekeeping gene RPL27 and are presented as fold changes compared to the control. The mean ± SD was calculated for three individual samples/condition (n = 3). Statistically significant differences compared to the control: * p < 0.05, ** p < 0.01. (B) The levels of the nuclear fraction of phospho-GR (Ser211) were determined using Western blot analysis (n = 3; characteristic images are presented in the figure). Histone H3 was used as a loading control.
Total RNA isolation from cell cultures and murine bones, reverse transcription, and Q-PCR were performed as described in [36]. Primers were designed using NCBI Primer-BLAST https://www.ncbi.nlm.nih.gov/tools/primer-blast/, accessed on 25 August 2025 (Supplementary Table S1). Results were normalized to the expression of the housekeeping RPL27 и Rpl27 genes. The experiments were performed in triplicate.

For test [2], the system named is GR phosphorylated by Ser211 in K562 and Granta cells. Nature of the test: Western blot of nuclear phospho-GR (Ser211). It is filed as cell-based. The settings on record: 10 h; Dex 10 µM, 4S-C2 50 µM, 8S-E3 50 µM, 10S-E2 15 µM, 13S-G2 25 µM. The method, then:
as §1
Western blot analysis was performed as previously described. Proteins were resolved using SDS-PAGE. Membranes were blocked with 5% nonfat milk solution and then incubated with primary antibodies against phosphorylated GR (pGR, Ser211) (“Santa Cruz Biotechnology”, Santa Cruz, CA, USA) overnight at 4 °C. To verify equal protein loading and adequate transfer, the membranes were probed with Histone H3 antibodies (“Cell Signaling”, Boston, MA, USA). Goat anti-rabbit IgGs (“Jackson Immuno Research”, West Grove, PA, USA) were used as secondary antibodies. Signals were detected using ECL reagent and an ImageQuant LAS4000 system (“GE HealthCare”, Chicago, IL, USA). ImageJ 1.54h software was used for densitometry. The experiments were performed in triplicate.
7 K562, pGR nuclear 5 Granta, pGR nuclear
Supplementary Figure S 22. Quantification of Western blot analysis. K562 and Granta cells […]
μM) and 13S-G2 (25 μ M) for 10 h. Quantification of Western blot anal ysis of p- GR protein levels was done usin g Im a ge J f ree so ftwar e. Statisticall y significant diff eren ces as compared to control: […]
In general terms: A western blot detects proteins with antibodies after separation by electrophoresis.

For test [3], the system named is leukemia and lymphoma cells (Granta, K562). Also on record: method as in PMID 39858397. As to conditions: leukemia and lymphoma cells; read-out: cell viability IC50; cited from earlier work.
Test [4] relates to NF-kB activity in K562 cells. Nature of the test: NF-kB.Luc reporter assay in K562 cells. It is filed as cell-based. As to conditions: 5 h, 4S-C2 10 µM. Here is the method: (§2) We analyzed GR TR function using an NF-kB.Luc reporter assay with the irritating inflammatory agent phorbol 13-acetate 12-myristate (TPA) as an inducer of NF-kB signaling and positive control.
Figure 4 Effects of synephrine derivatives on GR transrepression in Granta lymphoma and K562 leukemia cells. (A) K562 and Granta cells stably infected with the lentiviruses bearing the NF-kB luciferase reporter. Cells were incubated for 5 h with the solvent (control), TPA (5 ng/mL), 4S-C2 (10 µM), 8S-E3 (10 µM), 10S-E2 (1 µM), or 13S-G2 (1 µM). Luciferase activity was determined as described in the Materials and Methods section. (B) IL1-α and IL6 mRNA expression in K562 and Granta cells. […] The mean ± SD was calculated for three individual samples/condition (n = 3). […]
Lentiviral stocks were generated using the lentiviral expression vector NF-kB. […] The infection efficiency exceeded 90% (tracked by GFP fluorescence).
(§3) Cells (10^4 cells/well in a 24-well plate), stably expressing Firefly Luciferase under the NF-kB promoter, were treated for 5 h with TPA (12-O-tetradecanoylphorbol-13-acetate, Boston, MA, USA, 10 ng/mL), 4S-C2 (10 µM), 8S-E3 (10 µM), 10S-E2 (1 µM), 13S-G2 (1 µM), or the vehicle. Luciferase activity was measured as described using a commercial Luciferase Assay (“Promega”, Madison, WI, USA) and Luminometer TD 20/20 (“Turner Design Instruments”, San Jose, CA, USA). […]
On the technique in general: A reporter such as luciferase makes a cellular process visible.

In test [5] the test system is NF-kB activity in Granta cells. Description: NF-kB.Luc reporter assay in Granta cells. It is filed as cell-based. The settings on record: 5 h, 4S-C2 10 µM, 10S-E2 1 µM. The method, then: as §2
Figure 4 Effects of synephrine derivatives on GR transrepression in Granta lymphoma and K562 leukemia cells. (A) K562 and Granta cells stably infected with the lentiviruses bearing the NF-kB luciferase reporter. Cells were incubated for 5 h with the solvent (control), TPA (5 ng/mL), 4S-C2 (10 µM), 8S-E3 (10 µM), 10S-E2 (1 µM), or 13S-G2 (1 µM). Luciferase activity was determined as described in the Materials and Methods section. (B) IL1-α and IL6 mRNA expression in K562 and Granta cells. Q-PCR results were normalized to the expression of the housekeeping gene RPL27 and are presented as the fold change compared to the control. The mean ± SD was calculated for three individual samples/condition (n = 3). Statistically significant differences compared to the control: * p < 0.05, ** p < 0.01.
Lentiviral stocks were generated using the lentiviral expression vector NF-kB. Luc was encoded with Firefly Luciferase reporters with the NF-kB-responsive promoter of minimal CMV promoter as a control (“System Bioscience”, Moutain View, CA, USA), along with packing plasmids GAG, REV, and VSVg. HEK-293T cells were transfected with the abovementioned plasmids using TurboFect reagent (“Thermo Scientific”, Waltham, MA, USA) according to the manufacturer’s protocol. […] The infection efficiency exceeded 90% (tracked by GFP fluorescence).
as §3

For the compound `CCCCCCNCC(O)c1ccc([N+](=O)[O-])cc1` (stereo not drawn) [13S-G2, 2-(hexylamino)-1-(4-nitrophenyl)ethanol], the IC50 on GR is 0.69 µM; in test [3] it was 13 to 26 µM. The “expression of TA marker genes FKBP51, GILZ, DDIT4” value in test [1] is listed as “did not increase the expression”. In test [2], the “GR phosphorylation level at Ser211” value is “weak increase”.
Regarding `CCCCCCNCC(O)c1ccc(OC)cc1` (stereo not drawn) [4S-C2, 2-(hexylamino)-1-(4-methoxyphenyl)ethanol], the IC50 on GR came out at 3.21 µM. The “GR phosphorylation level at Ser211” value in test [2] is recorded as “weak increase”. For the same compound, the “effect on NF-kB activity” value is “induced it” in test [4] and “significantly decreased” in test [5].
Consider `CNCC(Cl)c1ccc(OC(C)=O)cc1` (stereo not drawn) [CpdA, reference compound], for which the IC50 at GR (K562 cells, 0.5 µM [3H]Dex, 90 min, n = 3) was determined as 2.84 µM.
